Target: SIRT6 enzyme (Homo sapiens, UniProt Q8N6T7)
Assay: Measurement of deacetylation activity (SIRT6, AlphaLISA, H3K9(Ac) peptide)
Type: biochemical
Conditions: SIRT6 25 ng/mL, H3K9(Ac) biotin peptide 2 nM, NAD 10 μM, room temperature 30 minutes, duplicate
In short: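 SIRT6 (25 ng/mL final) in Tris-HCl pH 8.0 buffer with compound (e.g. 0.046–100 μM final) reacted with biotin-H3K9(Ac) peptide (2 nM) and NAD+ (10 μM), 30 min, room temperature. Stopped with nicotinamide plus AlphaLISA anti-unmodified H3K9/K27 beads, 60 min; EC150 (150% relative activity) from sigmoidal fit.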

Chain of SIRT6 enzyme (Q8N6T7 whole entry, species assumed): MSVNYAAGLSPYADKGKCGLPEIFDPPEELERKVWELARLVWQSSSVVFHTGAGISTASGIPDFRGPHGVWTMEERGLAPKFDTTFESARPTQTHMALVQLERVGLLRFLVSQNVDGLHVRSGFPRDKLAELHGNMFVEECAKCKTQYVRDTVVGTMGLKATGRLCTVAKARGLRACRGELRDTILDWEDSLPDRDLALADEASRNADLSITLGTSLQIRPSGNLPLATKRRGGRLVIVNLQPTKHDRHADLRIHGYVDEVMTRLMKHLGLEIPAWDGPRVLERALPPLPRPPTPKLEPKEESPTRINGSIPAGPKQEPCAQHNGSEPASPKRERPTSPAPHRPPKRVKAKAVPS

Row | EC150 (the concentration of the compound showing a relative enzyme activity of 150%) [μm] | SMILES
1 | 2.6 | COc1cc(-c2noc(N3CCc4nc(NC(=O)NCc5nccn5C)sc4C3)n2)ccc1F [Example 100, N-{5-[3-(4-fluoro-3-methoxyphenyl)-1,2,4-oxadiazol-5-yl]-4,5,6,7-tetrahydro[1,3]thiazolo[5,4-c]pyridin-2-yl}-N′-[(1-methyl-1H-imidazol-2-yl)methyl]urea]
2 | 1.1 | O=C(NCc1cc[nH]c(=O)c1)Nc1nc2c(s1)CN(c1nc(C3CCC(F)(F)CC3)no1)CC2 [Example 101, N-{5-[3-(4,4-difluorocyclohexyl)-1,2,4-oxadiazol-5-yl]-4,5,6,7-tetrahydro[1,3]thiazolo[5,4-c]pyridin-2-yl}-N′-[(2-oxo-1,2-dihydropyridin-4-yl)methyl]urea]
3 | 0.33 | O=C(NCc1nnc[nH]1)Nc1nc2c(s1)CN(c1nc(C3CCC(F)(F)CC3)no1)CC2 [Example 102, N-{5-[3-(4,4-difluorocyclohexyl)-1,2,4-oxadiazol-5-yl]-4,5,6,7-tetrahydro[1,3]thiazolo[5,4-c]pyridin-2-yl}-N′-[(4H-1,2,4-triazol-3-yl)methyl]urea]
4 | 1.8 | O=C(NCc1ccc[nH]c1=O)Nc1nc2c(s1)CN(c1nc(C3CCC(F)(F)CC3)no1)CC2 [Example 103, N-{5-[3-(4,4-difluorocyclohexyl)-1,2,4-oxadiazol-5-yl]-4,5,6,7-tetrahydro[1,3]thiazolo[5,4-c]pyridin-2-yl}-N′-[(2-oxo-1,2-dihydropyridin-3-yl)methyl]urea]
5 | 1.6 | O=C(NCC1(O)CC1)Nc1nc2c(s1)CN(c1nc(C3CCC(F)(F)CC3)no1)CC2 [Example 104, N-{5-[3-(4,4-difluorocyclohexyl)-1,2,4-oxadiazol-5-yl]-4,5,6,7-tetrahydro[1,3]thiazolo[5,4-c]pyridin-2-yl}-N′-[(1-hydroxycyclopropyl)methyl]urea]
6 | 2 | O=C(Nc1nc2c(s1)CN(c1nc(C3CCC(F)(F)CC3)no1)CC2)NC1(CO)CC1 [Example 105, N-{5-[3-(4,4-difluorocyclohexyl)-1,2,4-oxadiazol-5-yl]-4,5,6,7-tetrahydro[1,3]thiazolo[5,4-c]pyridin-2-yl}-N′-[1-(hydroxymethyl)cyclopropyl]urea]
7 | 2.4 | Cn1cnc(CNC(=O)Nc2nc3c(s2)CN(c2nc(C4CCC(F)(F)CC4)no2)CC3)n1 [Example 106, N-{5-[3-(4,4-difluorocyclohexyl)-1,2,4-oxadiazol-5-yl]-4,5,6,7-tetrahydro[1,3]thiazolo[5,4-c]pyridin-2-yl}-N′-[(1-methyl-1H-1,2,4-triazol-3-yl)methyl]urea]
8 | 2.3 | COc1ccc(-c2noc(N3CCc4nc(NC(=O)NC5CCOCC5)sc4C3)n2)cc1 [Example 107, N-{5-[3-(4-methoxyphenyl)-1,2,4-oxadiazol-5-yl]-4,5,6,7-tetrahydro[1,3]thiazolo[5,4-c]pyridin-2-yl}-N′-oxan-4-ylurea]
9 | 2.4 | COc1cccc(-c2noc(N3CCc4nc(NC(=O)NC5CCOCC5)sc4C3)n2)c1 [Example 108, N-{5-[3-(3-methoxyphenyl)-1,2,4-oxadiazol-5-yl]-4,5,6,7-tetrahydro[1,3]thiazolo[5,4-c]pyridin-2-yl}-N′-oxan-4-ylurea]

The remaining lines, values behind:

Row | SMILES | EC150 (the concentration of the compound showing a relative enzyme activity of 150%) [μm]
10 | O=C(Nc1nc2c(s1)[C@@H]1COC[C@H](C2)N1c1nc(-c2ccc(F)cc2)no1)N[C@H]1C[C@@H](O)C1 [Example 85, N-{10-[3-(4-fluorophenyl)-1,2,4-oxadiazol-5-yl]-4,7,8,9-tetrahydro-5H-4,8-epiminooxocino[5,4-d][1,3]thiazol-2-yl}-N′-[(1s,3s)-3-hydroxycyclobutyl]urea] | 0.51
11 | O=C(Nc1nc2c(s1)[C@@H]1COC[C@H](C2)N1c1nc(-c2ccc(F)cc2)no1)N[C@H]1C[C@H](O)C1 [Example 86, N-{(4S,8S)-10-[3-(4-fluorophenyl)-1,2,4-oxadiazol-5-yl]-4,7,8,9-tetrahydro-5H-4,8-epiminooxocino[5,4-d][1,3]thiazol-2-yl}-N′-[(1r,3S)-3-hydroxycyclobutyl]urea] | 0.25
12 | C[C@H](CO)NC(=O)Nc1nc2c(s1)CN(c1nc(C3CCCC(F)(F)C3)no1)CC2 (stereo partly drawn) [Example 87, N-{5-[3-(3,3-difluorocyclohexyl)-1,2,4-oxadiazol-5-yl]-4,5,6,7-tetrahydro[1,3]thiazolo[5,4-c]pyridin-2-yl}-N′-[(2R)-1-hydroxypropan-2-yl]urea] | 2.1
13 | CC(C)(O)CNC(=O)Nc1nc2c(s1)CN(c1nc(C3CCC(F)(F)CC3)no1)CC2 [Example 88, N-{5-[3-(4,4-difluorocyclohexyl)-1,2,4-oxadiazol-5-yl]-4,5,6,7-tetrahydro[1,3]thiazolo[5,4-c]pyridin-2-yl}-N′-(2-hydroxy-2-methylpropyl)urea] | 1.1
14 | CC(OCC(F)(F)F)c1noc(N2CCc3nc(NC(=O)N[C@H](C)CO)sc3C2)n1 (stereo partly drawn) [Example 89, N-[(2R)-1-hydroxypropan-2-yl]-N′-(5-{3-[1-(2,2,2-trifluoroethoxy)ethyl]-1,2,4-oxadiazol-5-yl}-4,5,6,7-tetrahydro[1,3]thiazolo[5,4-c]pyridin-2-yl)urea] | 2.9
15 | CC(C)(CO)NC(=O)Nc1nc2c(s1)[C@@H]1COC[C@H](C2)N1c1nc(-c2ccc(F)cc2)no1 [Example 90, N-{(4S,8S)-10-[3-(4-fluorophenyl)-1,2,4-oxadiazol-5-yl]-4,7,8,9-tetrahydro-5H-4,8-epiminooxocino[5,4-d][1,3]thiazol-2-yl}-N′-(1-hydroxy-2-methylpropan-2-yl)urea] | 2.5
16 | C[C@H](CO)NC(=O)Nc1nc2c(s1)CN(c1nc(C(C)(C)OCC(F)(F)F)no1)CC2 [Example 91, N-[(2R)-1-hydroxypropan-2-yl]-N′-(5-{3-[2-(2,2,2-trifluoroethoxy)propan-2-yl]-1,2,4-oxadiazol-5-yl}-4,5,6,7-tetrahydro[1,3]thiazolo[5,4-c]pyridin-2-yl)urea] | 0.81
17 | CC(C)(O)CNC(=O)Nc1nc2c(s1)CN(c1nc(C3(C(F)(F)F)CC3)no1)CC2 [Example 92, N-(2-hydroxy-2-methylpropyl)-N′-(5-{3-[1-(trifluoromethyl)cyclopropyl]-1,2,4-oxadiazol-5-yl}-4,5,6,7-tetrahydro[1,3]thiazolo[5,4-c]pyridin-2-yl)urea] | 3.5
18 | CNC(=O)Nc1nc2c(s1)CN(c1nc(C34CCC(F)(CC3)C4)no1)CC2 [Example 93, N-{5-[3-(4-fluorobicyclo[2.2.1]heptan-1-yl)-1,2,4-oxadiazol-5-yl]-4,5,6,7-tetrahydro[1,3]thiazolo[5,4-c]pyridin-2-yl}-N′-methylurea] | 0.7
19 | CC(C)(O)CNC(=O)Nc1nc2c(s1)CN(c1nc(C3CCC(F)(F)C3)no1)CC2 (stereo not shown) [Example 94, N-{5-[3-(3,3-difluorocyclopentyl)-1,2,4-oxadiazol-5-yl]-4,5,6,7-tetrahydro[1,3]thiazolo[5,4-c]pyridin-2-yl}-N′-(2-hydroxy-2-methylpropyl)urea] | 1.6
20 | O=C(Nc1nc2c(s1)CN(c1nc(C3CC(F)(F)CCO3)no1)CC2)N[C@@H]1CCOC1 (stereo partly drawn) [Example 95, N-{5-[3-(4,4-difluorooxan-2-yl)-1,2,4-oxadiazol-5-yl]-4,5,6,7-tetrahydro[1,3]thiazolo[5,4-c]pyridin-2-yl}-N′-[(3R)-oxolan-3-yl]urea] | 2.2
21 | CC(C)(O)CNC(=O)Nc1nc2c(s1)CN(c1nc(C34CC(C(F)F)(C3)C4)no1)CC2 [Example 96, N-(5-{3-[3-(difluoromethyl)bicyclo[1.1.1]pentan-1-yl]-1,2,4-oxadiazol-5-yl}-4,5,6,7-tetrahydro[1,3]thiazolo[5,4-c]pyridin-2-yl)-N′-(2-hydroxy-2-methylpropyl)urea] | 1.6
22 | O=C(Nc1nc2c(s1)CN(c1nc(C3(C(F)(F)F)CC3)no1)CC2)N[C@H]1C[C@H](O)C1 [Example 97, N-[(1r,3r)-3-hydroxycyclobutyl]-N′-(5-{3-[1-(trifluoromethyl)cyclopropyl]-1,2,4-oxadiazol-5-yl}-4,5,6,7-tetrahydro[1,3]thiazolo[5,4-c]pyridin-2-yl)urea] | 1.3
23 | COCCNC(=O)Nc1nc2c(s1)CN(c1nc(C3CC(F)(F)CCO3)no1)CC2 (stereo not shown) [Example 98, N-{5-[3-(4,4-difluorooxan-2-yl)-1,2,4-oxadiazol-5-yl]-4,5,6,7-tetrahydro[1,3]thiazolo[5,4-c]pyridin-2-yl}-N′-(2-methoxyethyl)urea] | 2.6
24 | O=C(NCc1cncnc1)Nc1nc2c(s1)CN(c1nc(C3CCC(F)(F)CC3)no1)CC2 [Example 99, N-{5-[3-(4,4-difluorocyclohexyl)-1,2,4-oxadiazol-5-yl]-4,5,6,7-tetrahydro[1,3]thiazolo[5,4-c]pyridin-2-yl}-N′-[(pyrimidin-5-yl)methyl]urea] | 1.1
25 | CNC(=O)Nc1nc2c(s1)C1COCC(C2)N1c1nnc(-c2cccc(C(F)F)c2)o1 (stereo not shown) [Example 109, N-(10-{5-[3-(difluoromethyl)phenyl]-1,3,4-oxadiazol-2-yl}-4,7,8,9-tetrahydro-5H-4,8-epiminooxocino[5,4-d][1,3]thiazol-2-yl)-N′-methylurea] | 1.4

Reference: US11981686B2, “Urea compound having substituent” (DAIICHI SANKYO COMPANY, LIMITED, priority 2019, dated 2024)
